From patent US11026965B2, “Nitric oxide-releasing cyclodextrins as biodegradable antibacterial scaffolds and methods pertaining thereto” (The University of North Carolina at Chapel Hill, priority 2018, dated 2021)
In brackets after ≈: the same amount, converted by molar mass. Where two headings read alike, the source gives them in different places.

How the values were obtained:
[1] = tested on: A549 human lung carcinoma cells; test: Anticancer action against A549 cells, 24 h MTS assay; assay type: cell-based; details: A549, 24 h MTS; error = 95% confidence interval for IC50
Protocol: Anticancer potential was evaluated against A549 human lung carcinoma cells using an MTS assay. […] All cell work performed in RPMI media and materials corrected for pH using 0.1 M HCl. […]

L929 mouse fibroblasts = test: In-vitro cytotoxicity, L929 mouse fibroblasts, MTS, 4 h exposure; assay type: cell-based
Protocol: L929 mouse fibroblasts were cultured in DMEM supplemented with 10% v/v fetal bovine serum (FBS) and 1 wt % penicillin/streptomycin, and incubated in 5% v/v CO2 under humidified conditions at 37° C. After reaching confluency (80%), the cells were trypsinized, seeded onto tissue-culture treated polystyrene 96-well plates at a density of 1×10^4 cells/mL, and incubated at 37° C. for 24 hours. The supernatant was then aspirated and replaced with 100 μL of fresh growth medium containing various concentrations of both unmodified control and NO-releasing CD derivatives to each well. After incubation at 37° C. for 4 hours, the supernatant was aspirated and 100 μL of a mixture of DMEM/MTS/PMS (105/20/1, v/v/v) was added to each well. The absorbance of the resulting colored solutions over 3 hours incubation was quantified by using a ThermoScientific Multiskan EX plate reader (Waltham, Mass.) at 490 nm. The mixture of DMEM/MTS/PMS and untreated cells were used as a blank and control, respectively. Cell viability was calculated according to the following formula: […]
Despite effective bactericidal capability, the applicability of new antibacterial agents is also determined by their toxicity to mammalian cells. With respect to therapeutic potential, toxicity to mammalian cells is an important factor in the development of any new antibacterial agent. The cytotoxicity of CD-NONOates was evaluated by exposing mouse fibroblast cells to various concentrations (0˜2000 μg/mL) of both control and NO-releasing CD derivatives over a 4 hour exposure. […] Both CD-PA7/NO and CD-MA7/NO were tolerable to the mouse fibroblasts even at 2000 μg/mL (63% and 73% cell viability for CD-PA7/NO and CD-MA7/NO, respectively). […] The behavior is in part related to the effective delivery of NO induced by the fast cellular uptake of positively charged macromolecular systems. This behavior was also ascribed to the large amounts of terminal primary amines groups.

[2] = NO-release properties of NO-releasing cyclodextrins at pH 5.4 and pH 7.4 (Table 5); assay type: physicochemical
Protocol: Additional studies were carried out to investigate NO-release properties from β-cyclodextrin under conditions consistent with healthy tissue (pH 7.4) and those of tumor microenvironments (pH 5.4). These studies also evaluated the role of NO-release properties on anticancer action using A549 lung cancer cells with two modifications to vary release kinetics (mono- and hepta-substitution to vary NO totals). This study also evaluated the efficacy of a combined therapeutic (a nitric oxide releasing CD with DOX) as compared to each therapeutic agent individually. […] Several different functionalized CDs were prepared as shown in Table 5 and using techniques as described elsewhere herein. […] All modifications (PA, DETA, and DETA7) except for PA7 have t1/2 under 10 min.

planktonic P. aeruginosa = test: Bactericidal assay against planktonic P. aeruginosa (4 h, static, MBC4h = 3-log reduction); assay type: cell-based, Pseudomonas aeruginosa; details: for MBC: Pseudomonas aeruginosa
Protocol: Nitric oxide may be an efficient antibacterial agent. The antibacterial activity of the NO-releasing CD derivatives was evaluated against Gram-negative P. aeruginosa, a model pathogen associated with serious medical infections (e.g., traumatic burns, cystic fibrosis). Pseudomonas aeruginosa is a Gram-negative pathogen. Bacterial viability assays were performed under static conditions. Minimum bactericidal concentrations over 4 hours exposure (MBC4h) were used to quantify their bactericidal activity, being required to eliminate bacteria viability by 3 logs (e.g., 99.9% killing). The total NO amount delivered by NO-releasing CD derivatives over this period was also calculated to quantitatively evaluate the required NO dose to achieve bactericidal activity.
The TSA bacterial stock of P. aeruginosa colony was cultured in 3 mL of TSB overnight (around 16 hours) at 37° C. A 1000 μL aliquot of the resulting suspension was added into 15 mL of fresh TSB and incubated at 37° C. for another 2 hours, to achieve a concentration of 10^8 colony forming units per mL (CFU/mL, confirmed by the OD600). The bacteria was collected by centrifugation, resuspended in sterile PBS, and diluted to 10^6 CFU/mL. The antibacterial efficacy of both non-NO-releasing and NO-releasing CD derivatives against P. aeruginosa was evaluated under static condition over 4 hours at 37° C. Blanks (untreated cells) were incubated in each experiment to ensure the bacteria remained viable at 10^6 CFU/mL over 4 hour assay. 100 μL aliquots of blank, control or NO-releasing CD derivatives treated bacteria suspensions were shifted, diluted 10-fold in sterile H2O and plated on TSA plates using an Eddy Jet spiral plater (IUL; Farmingdale, N.Y.), followed by incubation overnight at 37° C. Bacterial viability was evaluated via total colony count on the TSA plates by using a Flash & Go colony counter (IUL; Farmingdale, N.Y.). […] Of note, the limit of detection for this selected plate counting method is 2.5×10^3 CFU/mL.
Additional testing was done to determine the antibacterial efficacy and toxicity of DETA, DETA/NO (DETA functionalized with NO), and DETA/NO mixed with CD (at ratios of 1:1 or 1:2) as compared to CD-DETA or CD-DETA/NO (CD-DETA functionalized with NO). The same conditions as disclosed above for antibacterial testing and cytotoxicity was used.

[3] = 4 h exposure, 3-log reduction in viability

Row | [NO]max ([2]; pH 5.4) [ppb mg^−1] | [NO]t ([2]; pH 5.4) [µmol/mg] | td ([2]; pH 5.4) [h] | [NO]max ([2]; pH 7.4) [ppb mg^−1] | [NO]t ([2]; pH 7.4) [µmol/mg] | td ([2]; pH 7.4) [h] | Structure (SMILES) | NO dose [1] [µmol/mL] | MBC4 h (planktonic P. aeruginosa; [3]) [µg/mL] | other results
1 | 32000 ± 2500 | 0.74 ± 0.04 | 14.6 ± 0.8 | 900 ± 100 | 0.68 ± 0.03 | 20.2 ± 0.6 | NCCNCCNCC1OC2OC3C(CO)OC(OC4C(CO)OC(OC5C(CO)OC(OC6C(CO)OC(OC7C(CO)OC(OC8C(CO)OC(OC1C(O)C2O)C(O)C8O)C(O)C7O)C(O)C6O)C(O)C5O)C(O)C4O)C(O)C3O (stereo not drawn) [CD-DETA] | 1.07 ± 0.06 | 8000 | L929 viability (L929 mouse fibroblasts; up to 2 mg/mL): > 60%; MBC4 h (planktonic P. aeruginosa; 4 h exposure): 8000 µg/mL
2 | 25100 ± 5700 | 0.56 ± 0.09 | 5.0 ± 0.8 | 2100 ± 300 | 0.60 ± 0.07 | 17.0 ± 1.0 | CCCNCC1OC2OC3C(CO)OC(OC4C(CO)OC(OC5C(CO)OC(OC6C(CO)OC(OC7C(CO)OC(OC8C(CO)OC(OC1C(O)C2O)C(O)C8O)C(O)C7O)C(O)C6O)C(O)C5O)C(O)C4O)C(O)C3O (stereo not drawn) [CD-PA] | 0.97 ± 0.16 |  | 
3 |  |  |  |  |  |  | NCCNCCN [DETA, diethylenetriamine] |  |  | concentration at which toxic (L929 mouse fibroblasts; FIG. 21e): 4000 µg/mL; bactericidal efficacy (in words) (planktonic P. aeruginosa; 4 h incubation): highly antimicrobial; MBC (planktonic P. aeruginosa; 4 h exposure, 3-log reduction in viability, read-out: MBC4 h): 250 µg/mL (≈ 2420 µM)
4 |  |  |  |  |  |  | NCCN(CCN)/[N+]([O-])=N/O [DETA/NO] |  | 1000 | 
5 |  |  |  |  |  |  | CC(CN1c2ccccc2Sc2ccccc21)N(C)C (stereo not drawn) [PM, promethazine] |  |  | cytotoxicity at MBC4h concentration (in words) (L929 mouse fibroblasts): toxic to the vast majority of the mouse fibroblast cells; MBC (planktonic P. aeruginosa; concentration of PM, PM and CD derivative 1:1 molar, read-out: PM MBC4 h): 100 µg/mL (≈ 352 µM); MBC4h for PM (planktonic P. aeruginosa; concentration of PM): 100 µg/mL
